Experimental data from patent publication EP4616862A1, “ANTIVIRAL C[…] DERIVED FROM NUCLEIC ACID AND PHARMACEUTICALLY ACCEPTABLE SALTS THEREOF” (priority 2022, dated 2024).
Read-outs that look alike come from different tables or passages of the source.

What was measured:
FIPV = FIPV infection inhibition in FCWF-4 cells (RT-qPCR); assay type: cell-based, Feline Infectious peritonitis virus; settings: for IC50: FCWF-4 cell line; for SI (selectivity index): CC50/IC50
[1] = Cytotoxicity (CDV example); assay type: cell-based, monkey; settings: Table 6 (CDV), cell line for cytotoxicity not given
[2] = tested on: Canine distemper virus (CDV); assay: microbe, parasite or virus in culture; assay type: cell-based; settings: for IC50: canine distemper virus, Vero
RNaseL = assay type: cell-based, Pig
[3] = Cytotoxicity (CAV example); assay type: cell-based, monkey; settings: Table 5 (CAV), cell line for cytotoxicity not given
[4] = tested on: Low pathogenic avian influenza virus (LPAIV, H9N2); assay: microbe, parasite or virus in culture; assay type: cell-based; settings: for IC50: unidentified influenza virus, H9N2, MDCK
[5] = tested on: African Swine Fever Virus (ASFV, China/2018/AnhuiXCGQ); assay: microbe, parasite or virus in culture; assay type: cell-based; settings: for IC50: African swine fever virus
Canine adenovirus (CAV) = assay: CAV infection inhibition in Vero cells (qPCR of viral DNA); assay type: cell-based; settings: for SI (selectivity index): CC50/IC50; for IC50: Canine mastadenovirus A, Vero cell line
Feline parvovirus (FPV) = assay: microbe, parasite or virus in culture; assay type: cell-based; settings: for IC50: Feline parvovirus, CRFK
Mx1 = assay type: cell-based, Pig
[6] = Cytotoxicity (FPV example); assay type: cell-based, feline; settings: Table 7 (FPV), cell line for cytotoxicity not given
[7] = tested on: foot and mouth disease virus (FMDV); assay: microbe, parasite or virus in culture; assay type: cell-based; settings: for IC50: Foot-and-mouth disease virus
ISG15 = assay type: cell-based, Pig
[8] = tested on: Classical Swine Fever Virus (CSFV); assay: microbe, parasite or virus in culture; assay type: cell-based; settings: for IC50: Classical swine fever virus
Feline Calicivirus (FCV) = assay: microbe, parasite or virus in culture; assay type: cell-based; settings: for IC50: Feline calicivirus, CRFK
in vitro [9] = assay: in vitro
[10] = Cytotoxicity (CCoV example); assay type: cell-based, canine; settings: Table 4 (CCoV), cell line for cytotoxicity not given
in vitro [11] = assay: in vitro; remark: listed apart in the source
in vitro [12] = assay: in vitro; remark: listed apart in the source
[13] = Cytotoxicity (FCV example); assay type: cell-based, feline; settings: Table 8 (FCV), cell line for cytotoxicity not given
[14] = Cytotoxicity (FIPV example); assay type: cell-based, feline; settings: Table 9 (FIPV), cell line for cytotoxicity not given
in vitro [15] = assay: in vitro; remark: listed apart in the source
[16] = tested on: Canine coronavirus (CCoV); assay: microbe, parasite or virus in culture; assay type: cell-based
[17] = Alphacoronavirus 1, 48 h, FIPV 100 TCID50/well, simultaneous treatment, 2 days, RT-qPCR, read-out: IC50 (FIPV infection inhibition concentration)
[18] = 72 h, read-out: IC50 (CDV infection inhibition concentration)
[19] = 48 h, read-out: IC50 (LPAIV infection inhibition concentration)
[20] = 48 h, read-out: IC50 (ASFV infection inhibition concentration)
[21] = 48 h, CAV 100 TCID50/well, simultaneous treatment, 2 days, qPCR, read-out: IC50 (CAV infection inhibition concentration)
[22] = 48 h, read-out: IC50 (FPV infection inhibition concentration)
[23] = BHK-21, 36 h, read-out: IC50 (FMDV infection inhibition concentration)
[24] = PK-15, 48 h, read-out: IC50 (CSFV infection inhibition concentration)
[25] = 24 h, read-out: IC50 (FCV infection inhibition concentration)
[26] = Alphacoronavirus 1, A-72, 48 h, read-out: IC50 (CCoV infection inhibition concentration)

Row | Compound | IC50 (FIPV; [17]) [µM] | SI (selectivity index) (FIPV; FIPV) | SI (selectivity index) [2] | IC50 [2, 18] [µM] | Fold change (multiple increase compared to control group) RNaseL (RNaseL) | IC50 [4, 19] [µM] | SI (selectivity index) [5] | IC50 [5, 20] [µM] | SI (selectivity index) (Canine adenovirus (CAV); CAV) | IC50 (Canine adenovirus (CAV); [21]) [µM] | SI (selectivity index) (Feline parvovirus (FPV)) | IC50 (Feline parvovirus (FPV); [22]) [µM] | Fold change (multiple increase compared to control group) Mx1 (Mx1) | Fold change (multiple increase compared to control group) ISG15 (ISG15) | SI (selectivity index) [8] | IC50 [8, 24] [µM] | SI (selectivity index) (Feline Calicivirus (FCV)) | IC50 (Feline Calicivirus (FCV); [25]) [µM] | SI (selectivity index) [16] | IC50 [16, 26] [µM] | other results
1 | Nc1nc2c(ncn2[C@@H](C=O)O[C@@H](C=O)CO)c(=O)[nH]1 [Dialdehyde-Guanosine, dialdehyde form of guanosine] | < 52.8 | > 113.7 | > 46.5 | < 129 | 2.5 (±0.1) | < 102 | > 75.9 | < 79 | > 69.8 | < 85.9 | > 158 | < 38 | 3.5 (±0.7) | 4.7 (±0.3) | > 36.1 | < 165 | > 329.7 | < 18.2 | > 54.7 | < 110 | CC50 ([1]; monkey, vero cells): > 6000 µM; CC50 ([3]; monkey, vero cells): > 6000 µM; IC50 [4]: 102 µM; IC50 [5]: 79 µM; IC50 (Canine adenovirus (CAV); CAV, read-out: IC50): 85.9 µM; CC50 ([6]; cat, crfk cells): > 6000 µM; SI (selectivity index) [7]: > 52.3; IC50 ([7]; BHK-21): 115 µM; IC50 [7, 23]: < 115 µM; IC50 (Feline Calicivirus (FCV)): 18.2 µM; CC50 (in vitro [9]; hamster, bhk-21 cells): > 6000 µM; CC50 ([10]; dog, a-72 cells): > 6000 µM; CC50 (in vitro [11]; pig, pk15 cells): > 6000 µM; CC50 (in vitro [12]; dog, mdck): > 6000 µM; CC50 ([13]; cat, crfk cells): > 6000 µM; CC50 ([14]; cat, fcwf-4 cells): > 6000 µM; CC50 (in vitro [15]; pig, pam cells): > 6000 µM; IC50 ([16]; Alphacoronavirus 1, A-72): 110 µM
2 | O=C[C@@H](CO)O[C@H](C=O)n1cnc2c(=O)[nH]cnc21 [Dialdehyde-Inosine, dialdehyde form of inosine] | < 45.5 | > 219.9 | > 93.9 | < 106 | 3.0 (±0.2) | < 268 | > 103.5 | < 96.6 | > 30.7 | < 326 | > 192 | < 52 | 3.5 (±1.1) | 4.0 (±0.6) | > 42.0 | < 238 | > 384.6 | < 26 | > 221.7 | < 45.1 | IC50 (FIPV; Alphacoronavirus 1, FIPV, read-out: IC50): 45.5 µM; CC50 [1]: > 10000 µM; CC50 [3]: > 10000 µM; SI (selectivity index) [4]: > 37.4; CC50 [6]: > 10000 µM; SI (selectivity index) [7]: > 22.9; IC50 [7, 23]: < 436 µM; CC50 (in vitro [9]): > 10000 µM; CC50 [10]: > 10000 µM; CC50 (in vitro [11]): > 10000 µM; CC50 (in vitro [12]): > 10000 µM; CC50 [13]: > 10000 µM; CC50 [14]: > 10000 µM; CC50 (in vitro [15]): > 10000 µM; IC50 ([16]; Alphacoronavirus 1, A-72): 45.1 µM
3 | O=C[C@@H](CO)O[C@H](C=O)n1cnc2c(=O)[nH]c(=O)[nH]c21 [Dialdehyde-Xanthosine, dialdehyde form of xanthosine] | < 55.1 | > 181.4 | > 125.1 | < 79.9 | 3.4 (±0.2) | < 222 | > 90.9 | < 110 | > 77.2 | < 130 | > 258 | < 31 | 3.5 (±1.0) | 4.5 (±0.4) | > 63.8 | < 157 | > 398.0 | < 20.1 | > 232.6 | < 43 | CC50 [1]: > 10000 µM; IC50 [2]: 79.9 µM; CC50 [3]: > 10000 µM; SI (selectivity index) [4]: > 45.1; IC50 (Feline parvovirus (FPV)): 31 µM; CC50 [6]: > 8000 µM; IC50 ([8]; PK-15): 157 µM; CC50 [10]: > 10000 µM; CC50 (in vitro [11]): > 10000 µM; CC50 (in vitro [12]): > 10000 µM; CC50 [13]: > 8000 µM; CC50 [14]: > 10000 µM; CC50 (in vitro [15]): > 10000 µM; IC50 ([16]; Alphacoronavirus 1, A-72): 43 µM
4 | O=c1[nH]c(=O)c2ncn([C@@H](CO)OC(CO)CO)c2[nH]1 [Acyclic diol-Xanthosine, acyclic diol form of xanthosine] | < 1020 | > 9.8 | > 4.9 | < 2050 | 1.7 (±0.3) | < 2000 | > 8.6 | < 1160 | > 7.4 | < 1350 | > 1.7 | < 5750 | 2.7 (±1.4) | 4.7 (±1.3) | > 3.4 | < 2960 | > 64.5 | < 155 | > 3.8 | < 2600 | CC50 ([1]; monkey, vero cells): > 10000 µM; CC50 ([3]; monkey, vero cells): > 10000 µM; CC50 ([6]; cat, crfk cells): > 10000 µM; SI (selectivity index) [7]: > 5.0; IC50 [7, 23]: < 2000 µM; CC50 (in vitro [9]; hamster, bhk-21 cells): > 10000 µM; CC50 ([10]; dog, a-72 cells): > 10000 µM; CC50 (in vitro [11]; pig, pk15 cells): > 10000 µM; CC50 (in vitro [12]; dog, mdck): > 10000 µM; CC50 ([13]; cat, crfk cells): > 10000 µM; CC50 ([14]; cat, fcwf-4 cells): > 10000 µM; CC50 (in vitro [15]; pig, pam cells): > 10000 µM
